In data set [1] the test system is HIV-1 (IIIB) in MT-4 cells. The data set can be described thus: microbe, parasite or virus in culture. As to conditions: Human immunodeficiency virus 1, IIIB; for pEC50: MT4, MT-4 cells, HIV-1, read-out: MT4 EC50. In kind it is cell-based.
A short description of data set [2]: Liver microsomal stability, human liver microsomes. To be noted: human. How it is done:
Liver Microsomal Stability Protocol
Test compounds and one control compound (verapamil) were tested in 3 different species in duplicate sets.
Test compound concentration: 1 uM; Protein concentration: 0.5 mg/mL (for dog, rat, and human liver microsomes); Cofactor: NADPH-Regenerating system (NRS) solution; Time-points: 2, 12, 25, 45, and 65 minutes.
Reaction Composition (in Each Incubation Well) Contains:
At an incubation temperature of 37° C., the reaction was started with addition of NADPH Regeneration System, at each time point, 25 uL of the reaction mixture was removed and added to a plate with 225 uL quenching solution (50% MeOH, 25% ACN, 25% H2O, and 200 nM labetalol as internal standard). After plates were vortexed, they were centrifuged for 30 minutes to remove proteins. About 100 μL supernatant was removed to a new plate and diluted with 150 μL water. About 20 μL of the mixture was injected into LC/MS/MS system to monitor the compound's response. In vitro measured t1/2 was used to calculate Clint values.
On the technique in general: Liver microsomes are vesicles of endoplasmic reticulum, rich in cytochrome P450 enzymes.

pEC50: −log10 of the molar value. Read-outs that look alike come from different tables or passages of the source. Some results are limits rather than exact numbers.

As usually defined, the pEC50 is the EC50 on a negative log10 scale, so that one unit is a factor of ten. One may read the half-life as how long it takes for the measured level to halve. As for `CC(C)(C)C[C@]1(c2ccc(-c3cnn(C(F)F)c3)cc2)NC(=N)N([C@H](COC(=O)NC(C)(C)C(F)F)c2ccc(Cl)c(-c3ncn[nH]3)c2)C1=O` [Compound 78], in data set [1], the pEC50 was 7.13. Also, in data set [2] (liver microsomes), the half-life at 1 uM is no less than 6.58 h. Taken in the same sequence, the figures for `CC(C)(C)C[C@]1(c2ccc3nc(-c4cnn(C(F)F)c4)ccc3c2)NC(=N)N([C@H](COC(=O)NC2(C(F)(F)F)CC2)c2ccc(Cl)c(-n3ncnc3C(F)F)c2)C1=O` [Compound 350] were 8.05 and no less than 6.58 h. With `CC(C)(C[C@]1(c2ccc(-c3cnn(C4CC4)n3)cc2)NC(=N)N([C@H](CNC(=O)CC(F)(F)F)c2ccc(Cl)c(-c3ncnn3C(F)F)c2)C1=O)C(F)(F)F` [Compound 160], in data set [1], the pEC50 was 7.90. In data set [2] (liver microsomes), this compound displayed a half-life at 1 uM of no less than 6.58 h.

Regarding `CC(C)(C[C@]1(c2ccc(-c3cnn(S(C)(=O)=O)c3)cc2)NC(=N)N([C@H](COC(=O)NC2(C(F)(F)F)CC2)c2ccc(Cl)c(-n3ncnc3C(F)F)c2)C1=O)C(F)(F)F` [Compound 308], in data set [1], the pEC50 is 7.79. Besides, in data set [2] (liver microsomes), the half-life at 1 uM was no less than 6.58 h.

For the compound `C[C@H](NC(=O)OC[C@H](c1ccc(Cl)c(-n2ncnc2C(F)F)c1)N1C(=N)N[C@](CC(C)(C)C)(c2ccc(-c3cn(C4(C(F)(F)F)CC4)nn3)cc2)C1=O)C(F)(F)F` [Compound 363], the pEC50 in data set [1] was 7.93. In data set [2] (liver microsomes), this compound gave a half-life at 1 uM of no less than 6.58 h. Regarding `CC(C)C[C@]1(c2ccc(-c3cnn(C(F)F)c3)cc2F)NC(=N)N([C@H](COC(=O)NC2(C(F)(F)F)CC2)c2ccc(Cl)c(-n3ncnc3C(F)F)c2)C1=O` [Compound 278], in data set [1], the pEC50 was 7.63. Besides, the half-life at 1 uM in data set [2] (liver microsomes) was no less than 6.58 h.

Turning to `CC(C)(C)C[C@]1(c2ccc(-n3cnnc3)cc2)NC(=N)N([C@H](COC(=O)NC2(C(F)(F)F)CC2)c2ccc(Cl)c(-n3ncnc3C(F)F)c2)C1=O` [Compound 359], the pEC50 in data set [1] was 6.37. In data set [2] (liver microsomes), this compound displayed a half-life at 1 uM of no less than 6.58 h. In the case of `CC(C)(C)C[C@]1(c2ccc(-c3cnn(S(C)(=O)=O)c3)c(F)c2)NC(=N)N([C@H](COC(=O)NC2(C(F)(F)F)CC2)c2ccc(Cl)c(-n3ncnc3C(F)F)c2)C1=O` [Compound 290], the pEC50 in data set [1] is 7.93. The half-life at 1 uM in data set [2] (liver microsomes) was no less than 6.58 h. The like results for `CC(C)(C)C[C@]1(c2ccc(-c3cnn(C(F)F)c3)cc2)NC(=N)N([C@H](COC(=O)NC(C)(C)C(F)(F)F)c2ccc(Cl)c(-n3ncnc3C(F)F)c2)C1=O` [Compound 182] were, in that order, 7.92 and no less than 6.58 h. Taken in the same sequence, the figures for `CC(C)(C)C[C@]1(c2ccc(-c3cnn(C(F)F)c3)cc2)NC(=N)N([C@H](COC(=O)NC2(C(F)(F)F)CC2)c2ccc(Cl)c(-c3nnn[nH]3)c2)C1=O` [Compound 72] were 5.24 and no less than 6.58 h.

As to `CC(C)(C[C@]1(c2ccc(-c3cnn(C4CC4)n3)cc2)NC(=N)N([C@H](CNC(=O)OC2CC2)c2ccc(Cl)c(-n3ncnc3C(F)F)c2)C1=O)C(F)(F)F` [Compound 392], the pEC50 in data set [1] was 7.61. In data set [2] (liver microsomes), this compound gave a half-life at 1 uM of no less than 6.58 h. As usually defined, the EC50 is the midpoint of the concentration-response curve. As for `CC(C)(C)C[C@]1(c2ccc(-c3cnn(C(F)F)c3)cc2)NC(=N)N([C@H](COC(=O)NC2(C(F)F)CC2)c2ccc(Cl)c(-n3ncnc3C(F)F)c2)C1=O` [Compound 179], in data set [1] (MT4, read-out: MT4 EC50 (nM)), the EC50 amounted to 9.37 nM. In data set [2] (microsomes), this compound showed a half-life at 1 uM of no less than 6.58 h. For the compound `Cn1ccc(-c2ccc([C@@]3(CC(C)(C)C)NC(=N)N([C@H](COC(=O)NC4(C(F)(F)F)CC4)c4ccc(Cl)c(-n5ncnc5C(F)F)c4)C3=O)cc2F)n1` [Compound 289], in data set [1], the pEC50 was 8.08. Further, in data set [2] (liver microsomes), the half-life at 1 uM is no less than 6.58 h. Turning to `CC(C)(C#N)C[C@]1(c2ccc(-c3ccn(C(F)F)n3)cc2)NC(=N)N([C@H](COC(=O)NC2(C(F)(F)F)CC2)c2ccc(Cl)c(-n3ncnc3C(F)F)c2)C1=O` [Compound 336], the pEC50 in data set [1] is 7.13. The half-life at 1 uM in data set [2] (liver microsomes) is no less than 6.58 h.

For the compound `CC(C)(C)C[C@]1(c2ccc(C#Cc3cnn(C(F)F)c3)c(F)c2)NC(=N)N([C@H](COC(=O)NC2(C(F)(F)F)CC2)c2ccc(Cl)c(-n3ncnc3C(F)F)c2)C1=O` [Compound 361], in data set [1], the pEC50 is 7.09. In data set [2] (liver microsomes), this compound displayed a half-life at 1 uM of no less than 6.58 h. With `CC(C)(C)C[C@]1(c2ccc(-c3cnn(C(F)F)c3)cc2)NC(=N)N([C@H](COC(=O)NC(C)(C)C(F)F)c2ccc(Cl)c(-c3nncn3C(F)F)c2)C1=O` [Compound 91], the pEC50 in data set [1] is 6.70. Moreover, the half-life at 1 uM in data set [2] (liver microsomes) was no less than 6.58 h.

For the compound `CC(C)(C)C[C@]1(c2ccc(-c3cnn(S(=O)(=O)C4CC4)c3)c(F)c2)NC(=N)N([C@H](COC(=O)NC2(C(F)(F)F)CC2)c2ccc(Cl)c(-n3ncnc3C(F)F)c2)C1=O` [Compound 291], the pEC50 in data set [1] was 7.93. Besides, the half-life at 1 uM in data set [2] (liver microsomes) is no less than 6.58 h. The like results for `CC(C)(C)C[C@]1(c2ccc(-c3cn[nH]n3)cc2)NC(=N)N([C@H](COC(=O)NC2(C(F)(F)F)CC2)c2ccc(Cl)c(-n3ncnc3C(F)F)c2)C1=O` [Compound 372] were, in that order, 7.33 and no less than 6.58 h.

With `CC(C)(C)C[C@]1(c2ccc(-c3cnn(C(F)F)c3)c(F)c2)NC(=N)N([C@H](COC(=O)N[C@@H]2CC2(F)F)c2ccc(Cl)c(-n3ncnc3C(F)F)c2)C1=O` [Compound 339], in data set [1], the pEC50 is 8.04. In addition, in data set [2] (liver microsomes), the half-life at 1 uM is no less than 6.58 h. The like results for `C[C@H](NC(=O)OC[C@H](c1ccc(Cl)c(-n2ncnc2C(F)F)c1)N1C(=N)N[C@](CC(C)(C)C)(c2ccc(-c3cnn(C(F)F)c3)cc2)C1=O)C(F)F` [Compound 344] were, in that order, 7.92 and no less than 6.58 h. Taken in the same sequence, the figures for `C[C@H](NC(=O)OC[C@H](c1ccc(Cl)c(-c2ncnn2C(F)F)c1)N1C(=N)N[C@](CC(C)(C)C)(c2ccc(-c3cnn(C(F)F)n3)cc2)C1=O)C(F)(F)F` [Compound 163] were 8.04 and no less than 6.58 h.

As for `CC(C)(C[C@]1(c2ccc(-c3cnn(C4CC4)n3)cc2)NC(=N)N([C@H](COC(=O)NC2(C(F)(F)F)CC2)c2ccc(Cl)c(-c3ncnn3C(F)F)c2)C1=O)C(F)F` [Compound 154], the pEC50 in data set [1] is 7.70. This compound gave a half-life at 1 uM in data set [2] (liver microsomes) of no less than 6.58 h. The like results for `Cn1ccc(-c2ccc([C@@]3(CC(C)(C)C)NC(=N)N([C@H](COC(=O)NC4CC4(F)F)c4ccc(Cl)c(-n5ncnc5C(F)F)c4)C3=O)cc2F)n1` (stereo partly shown) [Compound 295] were, in that order, 8.13 and no less than 6.58 h. Turning to `CC(C)(C[C@]1(c2ccc(-c3cnn(C4CC4)c3)cc2)NC(=N)N([C@H](COC(=O)NC2(C(F)(F)F)CC2)c2ccc(Cl)c(-c3ncnn3C(F)F)c2)C1=O)C(F)(F)F` [Compound 135], in data set [1], the pEC50 was 7.87. The compound further displayed a half-life at 1 uM in data set [2] (liver microsomes) of no less than 6.58 h. The like results for `CC(C[C@]1(c2ccc(-c3cnn(C(F)F)c3)cc2)NC(=N)N([C@H](COC(=O)NC2(C(F)(F)F)CC2)c2ccc(Cl)c(-n3ncnc3C(F)F)c2)C1=O)CS(C)(=O)=O` (stereo partly shown) [Compound 345] were, in that order, 6.87 and no less than 6.58 h.

For `CC(C)(C)C[C@]1(c2ccc(-c3cnn(C4CC4)n3)cc2)NC(=N)N([C@H](CNS(=O)(=O)C2CC2)c2ccc(Cl)c(-n3ncnc3C(F)F)c2)C1=O` [Compound 387], the pEC50 in data set [1] is 7.32. The half-life at 1 uM in data set [2] (liver microsomes) is no less than 6.58 h. The like results for `CC(C)(C)C[C@]1(c2ccc(-c3cnn(C(F)F)c3)cc2)NC(=N)N([C@H](COC(=O)NC2CC2)c2ccc(Cl)c(-c3nccc(=O)[nH]3)c2)[C@H]1O` [Compound 17] were, in that order, 6.25 and no less than 6.58 h. With `CC(C)(C)C[C@]1(c2ccc(-c3cnn(C(F)F)c3)cc2)NC(=N)N([C@H](COC(=O)NC2(C(F)(F)F)CC2)c2ccc(Cl)c(-c3ccccn3)c2)C1=O` [Compound 20], in data set [1], the pEC50 was 7.12. Moreover, the half-life at 1 uM in data set [2] (liver microsomes) was no less than 6.58 h. The like results for `CC(C)(C[C@]1(c2ccc(-c3cnn(C4CC4)n3)cc2)NC(=N)N([C@H](CNC(=O)CC(F)(F)F)c2ccc(Cl)c(-n3ncnc3C(F)F)c2)C1=O)C(F)(F)F` [Compound 391] were, in that order, 7.90 and no less than 6.58 h. For `Cn1ncnc1-c1cc([C@@H](COC(=O)NC(C)(C)C(F)F)N2C(=N)N[C@](CC(C)(C)C(F)(F)F)(c3ccc(-c4cnn(C(F)F)c4)cc3)C2=O)ccc1Cl` [Compound 130], in data set [1], the pEC50 is 7.73. Same read-out and setting: as for `CC(C)(C)C[C@]1(c2ccc(-c3cnn(C4CC4)n3)c(F)c2F)NC(=N)N([C@H](COC(=O)NC2(C(F)(F)F)CC2)c2ccc(Cl)c(-n3ncnc3C(F)F)c2)C1=O` [Compound 227], the figure is 7.60; as for `C[C@H](NC(=O)OC[C@H](c1ccc(Cl)c(-c2ncnn2C(F)F)c1)N1C(=N)N[C@](CC(C)(C)C2CC2)(c2ccc(-c3cnn(C4CC4)n3)cc2)C1=O)C(F)(F)F` [Compound 150], 8.00. In the case of `CN(C)C(=O)OC[C@H](c1ccc(Cl)c(-c2nc(-c3ccccc3)cs2)c1)N1C(=N)N[C@@](c2cc(F)cc(F)c2)(C2CC2)C1=O` [Compound 6], the pEC50 in data set [1] is 5.24. Still for that read-out and setting: as for `CC(C)(C)C[C@]1(c2ccc(-c3cnn(C(F)F)c3)cc2)NC(=N)N([C@H](COC(=O)NC2(C)CC2)c2cc(-n3cncn3)c(Cl)cn2)C1=O` [Compound 269], the figure is 7.21; as for `CC(C)(C)C[C@]1(c2cc(F)cc(F)c2)NC(=N)N([C@H](COC(=O)NC2(C)CC2)c2ccc(Cl)c(-n3cc(-c4ccccn4)cn3)c2)C1=O` [Compound 256], 6.26.

Source of the values: US10774053B2, “HIV protease inhibitors” (Gilead Sciences, Inc., priority 2017, dated 2020).
